Source: patent publication US6914045B2, “Glycopeptide antibiotics” (Wyeth Holdings Corporation, priority 2001, dated 2005)
Converted amounts (≈) assume the structure as drawn.

Assays:
Assay in all cases: in vitro antibacterial evaluation, MIC by broth dilution
Format in all cases: cell-based
[1] = system: Enterococcus sp.; conditions: broth dilution, 18 hours at 35° C.
Summary of the method: (§1)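 Broth dilution per NCCLS M7-A2 in Mueller-Hinton II medium, inoculum 5×10^5 CFU/mL, antibiotic range 64-0.06 μg/mL. MIC taken as lowest concentration inhibiting growth; Gram-positive panel includes recent clinical isolates resistant to methicillin, penicillin and/or vancomycin.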

[2] = system: Staphylococcus sp.; conditions: broth dilution, 18 hours at 35° C.
Summary of the method: as §1

[3] = system: Streptococcus sp.; conditions: broth dilution, 18 hours at 35° C.
Summary of the method: as §1

[4] = system: Escherichia coli; conditions: 18 hours at 35° C.

- MIC Enterococcus avium (GC 4558) [1]: 8 µg/mL (≈ 5.48 µM)
- MIC Enterococcus faecalis (ATCC 29212) [1]: 16 µg/mL (≈ 11 µM)
- MIC Enterococcus faecalis (GC 2242) [1]: 16 µg/mL (≈ 11 µM)
- MIC Enterococcus faecalis (GC 2691) [1]: 32 µg/mL (≈ 21.9 µM)
- MIC Enterococcus faecalis (GC 3059) [1]: 32 µg/mL (≈ 21.9 µM)
- MIC Enterococcus faecalis (GC 4552) [1]: 16 µg/mL (≈ 11 µM)
- MIC Enterococcus faecalis (GC 4553) [1]: 8 µg/mL (≈ 5.48 µM)
- MIC Enterococcus faecalis (GC 4554) [1]: 32 µg/mL (≈ 21.9 µM)
- MIC Enterococcus faecalis (GC 6189) [1]: 16 µg/mL (≈ 11 µM)
- MIC Enterococcus faecium (GC 2243) [1]: 16 µg/mL (≈ 11 µM)
- MIC Enterococcus faecium (GC 4556) [1]: 16 µg/mL (≈ 11 µM)
- MIC Enterococcus faecium (GC 4557) [1]: 4 µg/mL (≈ 2.74 µM)
- MIC Enterococcus faecalis (ATCC 29212) ([1]; strain ATCC 29212): 16 µg/mL (≈ 11 µM)
- MIC Enterococcus faecium (GC 2243) ([1]; strain GC 2243): 16 µg/mL (≈ 11 µM)
- MIC Enterococcus faecalis (GC 4552) ([1]; strain GC 4552): 16 µg/mL (≈ 11 µM)
- MIC Enterococcus faecalis (GC 4553) ([1]; strain GC 4553): 8 µg/mL (≈ 5.48 µM)
- MIC Enterococcus faecalis (GC 4554) ([1]; strain GC 4554): 32 µg/mL (≈ 21.9 µM)
- MIC Enterococcus faecium (GC 4556) ([1]; strain GC 4556): 16 µg/mL (≈ 11 µM)
- MIC Enterococcus faecium (GC 4557) ([1]; strain GC 4557): 4 µg/mL (≈ 2.74 µM)
- MIC Enterococcus avium (GC 4558) ([1]; strain GC 4558): 8 µg/mL (≈ 5.48 µM)
- MIC Enterococcus faecalis (GC 6189) ([1]; strain GC 6189): 16 µg/mL (≈ 11 µM)
- MIC Enterococcus faecalis (GC 2242) ([1]; inoculum 5×10^5 CFU/mL, strain GC 2242): 16 µg/mL (≈ 11 µM)
- MIC Enterococcus faecalis (GC 2691) ([1]; inoculum 5×10^5 CFU/mL, strain GC 2691): 32 µg/mL (≈ 21.9 µM)
- MIC Enterococcus faecalis (GC 3059) ([1]; inoculum 5×10^5 CFU/mL, strain GC 3059): 32 µg/mL (≈ 21.9 µM)
- MIC Coagulase Negative Staphylococcus (GC 4547) [2]: 4 µg/mL (≈ 2.74 µM)
- MIC Coagulase Negative Staphylococcus (GC 4548) [2]: 4 µg/mL (≈ 2.74 µM)
- MIC Coagulase Negative Staphylococcus (GC 4549) [2]: 4 µg/mL (≈ 2.74 µM)
- MIC Coagulase Negative Staphylococcus (GC 4551) [2]: 8 µg/mL (≈ 5.48 µM)
- MIC Coagulase Negative Staphylococcus (GC 6257) [2]: 2 µg/mL (≈ 1.37 µM)
- MIC Staphylococcus aureus (ATCC 29213) [2]: 4 µg/mL (≈ 2.74 µM)
- MIC Staphylococcus aureus (GC 1131) [2]: 8 µg/mL (≈ 5.48 µM)
- MIC Staphylococcus aureus (GC 3051) [2]: 4 µg/mL (≈ 2.74 µM)
- MIC Staphylococcus aureus (GC 3053) [2]: 4 µg/mL (≈ 2.74 µM)
- MIC Staphylococcus aureus (GC 4541) [2]: 4 µg/mL (≈ 2.74 µM)
- MIC Staphylococcus aureus (GC 4542) [2]: 4 µg/mL (≈ 2.74 µM)
- MIC Staphylococcus aureus (GC 4544) [2]: 8 µg/mL (≈ 5.48 µM)
- MIC Staphylococcus aureus (GC 4545) [2]: 4 µg/mL (≈ 2.74 µM)
- MIC Staphylococcus aureus-SMITH (GC 4543) [2]: 4 µg/mL (≈ 2.74 µM)
- MIC Staphylococcus aureus (ATCC 29213) ([2]; strain ATCC 29213): 4 µg/mL (≈ 2.74 µM)
- MIC Staphylococcus aureus (GC 1131) ([2]; strain GC 1131): 8 µg/mL (≈ 5.48 µM)
- MIC Staphylococcus aureus (GC 3051) ([2]; strain GC 3051): 4 µg/mL (≈ 2.74 µM)
- MIC Staphylococcus aureus (GC 3053) ([2]; strain GC 3053): 4 µg/mL (≈ 2.74 µM)
- MIC Staphylococcus aureus (GC 4541) ([2]; strain GC 4541): 4 µg/mL (≈ 2.74 µM)
- MIC Staphylococcus aureus (GC 4542) ([2]; strain GC 4542): 4 µg/mL (≈ 2.74 µM)
- MIC Staphylococcus aureus-SMITH (GC 4543) ([2]; strain GC 4543): 4 µg/mL (≈ 2.74 µM)
- MIC Staphylococcus aureus (GC 4544) ([2]; strain GC 4544): 8 µg/mL (≈ 5.48 µM)
- MIC Staphylococcus aureus (GC 4545) ([2]; strain GC 4545): 4 µg/mL (≈ 2.74 µM)
- MIC Coagulase Negative Staphylococcus (GC 4547) ([2]; strain GC 4547): 4 µg/mL (≈ 2.74 µM)
- MIC Coagulase Negative Staphylococcus (GC 4548) ([2]; strain GC 4548): 4 µg/mL (≈ 2.74 µM)
- MIC Coagulase Negative Staphylococcus (GC 4549) ([2]; strain GC 4549): 4 µg/mL (≈ 2.74 µM)
- MIC Coagulase Negative Staphylococcus (GC 4551) ([2]; strain GC 4551): 8 µg/mL (≈ 5.48 µM)
- MIC Coagulase Negative Staphylococcus (GC 6257) ([2]; strain GC 6257): 2 µg/mL (≈ 1.37 µM)
- MIC Streptococcus agalactiae (GC 4564) [3]: 2 µg/mL (≈ 1.37 µM)
- MIC Streptococcus pneumoniae (ATCC 6301) [3]: 2 µg/mL (≈ 1.37 µM)
- MIC Streptococcus pneumoniae (GC 1894) [3]: 0.5 µg/mL (≈ 0.343 µM)
- MIC Streptococcus pneumoniae (GC 4565) [3]: 2 µg/mL (≈ 1.37 µM)
- MIC Streptococcus pyogenes (GC 4563) [3]: 4 µg/mL (≈ 2.74 µM)
- MIC Streptococcus pneumoniae (ATCC 6301) ([3]; inoculum 5×10^5 CFU/mL, strain ATCC 6301): 2 µg/mL (≈ 1.37 µM)
- MIC Streptococcus pneumoniae (GC 1894) ([3]; inoculum 5×10^5 CFU/mL, strain GC 1894): 0.5 µg/mL (≈ 0.343 µM)
- MIC Streptococcus pyogenes (GC 4563) ([3]; inoculum 5×10^5 CFU/mL, strain GC 4563): 4 µg/mL (≈ 2.74 µM)
- MIC Streptococcus agalactiae (GC 4564) ([3]; inoculum 5×10^5 CFU/mL, strain GC 4564): 2 µg/mL (≈ 1.37 µM)
- MIC Streptococcus pneumoniae (GC 4565) ([3]; inoculum 5×10^5 CFU/mL, strain GC 4565): 2 µg/mL (≈ 1.37 µM)
- MIC Escherichia coli (ATCC 25922) [4]: 128 µg/mL (≈ 87.7 µM)
- MIC Escherichia coli (GC 4559) [4]: 64 µg/mL (≈ 43.8 µM)
- MIC Escherichia coli (GC 4560) [4]: 4 µg/mL (≈ 2.74 µM)
Structure (SMILES): CC(c1ccccc1)C1NC(=O)CNC(=O)C(CO)NC(=O)C(CC2CNC(=N)N2C2OC(CO)C(O)C(O)C2O)NC(=O)C(CC2CNC(=N)N2)NC(=O)C(Cc2ccc(OC3OC(CO)C(OC4OC(COCc5ccc(OCc6ccccc6)cc5)C(O)C(O)C4O)C(O)C3O)cc2)NC1=O (stereo not shown) [Example 246]
- MIC Staphylococcus haemolyticus (GC 4546) [2]: 4 µg/mL (≈ 2.74 µM)
- MIC Staphylococcus haemolyticus (GC 4546) ([2]; strain GC 4546): 4 µg/mL (≈ 2.74 µM)
